Reference: patent US20210115000A1, “NILE RED DERIVATIVES FOR IMPROVED RATIOMETRIC IMAGING FOR NERVE SPECIFIC CONTRAST” (Oregon Health & Sciences University, priority 2018, published 2021)
“Also recorded” adds a separate entry of the source.

Experiments:
[1] = tested on: U2OS human osteosarcoma cell line; experiment: Nile Red derivative cell staining and imaging, fixed and live cells; type: cell-based; settings: 1 μM; for fluorescence intensity in fixed cells: U2OS fixed with 4% PFA, imaged without washing; for fluorescence intensity in fixed cells / fluorescence intensity in live cells without washing / structures observed in live cells without washing: 5 min; for fluorescence intensity in live cells without washing / structures observed in live cells without washing: U2OS live, imaged in staining solution
Procedure: The U2OS human osteosarcoma cell line was cultured in Dulbecco's Modified Eagle Medium (DMEM, Thermo Fisher Scientific, Waltham, Mass.) with 10% fetal bovine serum (FBS, VWR, Radnor, Pa.) and 1% Penicillin/Steptomycin 100× (Thermo Fisher Scientific) at 37° C. in 5% CO2. For live cell imaging studies, Fluorobrite DMEM media (Thermo Fisher Scientific) was used in place of DMEM. For imaging studies, cells were grown in 96-well glass bottom plates (Cellvis, Mountain View, Calif.) for 48 hours, with a final confluence of <80%. Nile Red and its derivatives were prepared at 1-10 mM stock concentration in DMSO and diluted into media or buffer for cell staining and imaging studies.
Cell staining studies were completed on fixed and live U2OS cells using Nile Red and each synthesized Nile Red derivative described as follows. For fixed cell staining, cells were washed once with 1× phosphate buffered saline (PBS), then fixed with 4% paraformaldehyde (PFA) for 20 minutes at room temperature. The PFA was removed and each well was washed three times for 5 mins per wash (3×5 mins) with 1×PBS. The Nile Red fluorophores were diluted into 1×PBS to a final concentration of 1 μM, incubated for 5 minutes with the cells, and images were collected without washing. Live cell staining was completed using two methods. First, cells were washed once with Fluorobrite DMEM. The Nile Red fluorophore solution was prepared in Fluorobrite DMEM by diluting to a final concentration of 1 μM for staining, where cells were stained for 5 minutes. The fluorophore containing media was removed and the cells were fixed for 20 minutes using 4% PFA. Cells were then washed 3×5 mins with Fluorobrite DMEM prior to imaging. Second, cells were washed with Fluorobrite DMEM without FBS once for 5 minutes. Nile Red fluorophore solutions were prepared in Fluorobrite without FBS at 1 μM final concentration for cell staining. The cells were stained with the prepared solution for 5 minutes and imaged in the staining solution. All images were collected at their ideal exposure times to permit visualization of stained intracellular structures.
All ex vivo and cellular fluorescence and white light images were collected using a Zeiss AxioObserver inverted fluorescence microscope (Carl Zeiss, Oberkochen, Germany). All cell images were collected at 40× magnification and all tissue section images were collected at 10× magnification. Fluorescence excitation was completed using a Photofluor II broad band light source (89 North, Burlington, Vt.) filtered with a 545±12.5 nm bandpass excitation filter. Fluorescence images were collected using a 605±35 nm bandpass emission filter and a AxioCam 506 monochromo camera (Zeiss). All Filters were Purchased from Chroma Technologies (Bellows Falls, Vt.).

[2] = tested on: CD-1 mouse sciatic nerve and surrounding muscle and adipose tissues; experiment: Ex vivo tissue section staining, imaging and fluorescence quantification; settings: for tissue fluorescence intensity, region of interest analysis / tissue staining specificity on mouse tissue sections: 100 μM, 40 min; for tissue fluorescence intensity, region of interest analysis: n=4 tissue sections; for tissue staining specificity on mouse tissue sections: sections with nerve, muscle, adipose; for adipose to muscle ratio: ex vivo tissue sections, vs control autofluorescence
Procedure: Cryosections of CD-1 mouse sciatic nerve and surrounding muscle and adipose tissues from unrelated experiments were cut from optimal cutting temperature (OCT, Fisher Scientific, Hampton, N.H.) embedded frozen tissues. Cryosectioned tissues were captured on superfrost plus slides (Fisher Scientific) at 10 μm thickness. The tissue sections were washed with 1×PBS for 2 minutes to remove OCT, and then fixed with 2% PFA for 15 mins. The tissue sections were then washed with 0.1% Tween 20 in 1×PBS (3×5 mins), followed by incubation with 100 μM of Nile Red and each Nile Red derivative formulated using 10% DMSO, 5% Kolliphore (Sigma Aldrich, St. Louis, Mo.), 63.75% FBS, and 21.25% 1× PBS as previously described.^26 Tissue sections were incubated with the formulated fluorophores for 40 minutes at room temperature, followed by washing with blank formulation not containing fluorophore (2×5 mins). Each tissue section was then washed with 1×PBS (2×5 mins), fixed for 15 minutes using 2% PFA, followed by a final wash with 1×PBS for 5 mins before mounting in glycerol (Fisher Scientific). Images were collected at an exposure time of 650 ms for all Nile Red and Nile Red derivative stained sections. Four tissue sections were stained for Nile Red and each Nile Red derivative, facilitating adipose to muscle and adipose to nerve contrast ratio quantification where tissue intensities were quantified using region of interest analysis with custom written MatLab code (The MathWorks, Natick, Mass.). For each tissue type, a representative area was selected, where a threshold based mask was set to determine tissue from background. The mean tissue intensity was calculated in adipose, nerve and muscle tissues as the intensity per second and used to calculate the adipose to nerve and adipose to muscle contrast ratios. All ex vivo and cellular fluorescence and white light images were collected using a Zeiss AxioObserver inverted fluorescence microscope (Carl Zeiss, Oberkochen, Germany). All cell images were collected at 40× magnification and all tissue section images were collected at 10× magnification. Fluorescence excitation was completed using a Photofluor II broad band light source (89 North, Burlington, Vt.) filtered with a 545±12.5 nm bandpass excitation filter. Fluorescence images were collected using a 605±35 nm bandpass emission filter and a AxioCam 506 monochromo camera (Zeiss). All Filters were Purchased from Chroma Technologies (Bellows Falls, Vt.).

Compound	fluorescence intensity in fixed cells [1]	fluorescence intensity in live cells without washing [1]	structures observed in live cells without washing [1]	fluorescence intensity in both the fixed and live in vitro imaging studies ([1]; U2OS)	tissue fluorescence intensity, region of interest analysis [2]	tissue staining specificity on mouse tissue sections [2]	adipose to muscle ratio [2]
CCN(CC)c1ccc2nc3c4ccc(-c5ccc(C#N)cc5)cc4c(=O)cc-3oc2c1 [NR5, 4-(9-(diethylamino)-5-oxo-5H-benzo[a]phenoxazin-3-yl)benzonitrile]	bright	brightest of the synthesized derivatives	Prominent lipid droplet like structures	brightest fluorescence intensity of the Nile Red derivatives	strong nerve and adipose fluorescence staining; also recorded: substantially higher adipose, nerve and muscle tissue fluorescence	adipose specificity; also recorded: brightest overall tissue staining compared to the other Nile Red derivatives	increased contrast over control autofluorescence adipose to muscle ratio; also recorded: highest contrast ratios
CCN(CC)c1ccc2nc3c4ccccc4c(=O)cc-3oc2c1 [Nile Red]	bright	brightest overall	Prominent lipid droplet like structures	–	strong nerve and adipose fluorescence staining; also recorded: highest overall tissue fluorescence	adipose specificity	increased contrast over control autofluorescence adipose to muscle ratio; also recorded: highest contrast ratios
